Laboratory results as given in US20260176267A1, “PREPARATION OF IMIDAZOPYRIDINE AND IMIDAZOPYRIDAZINE DERIVATIVES AS NOVEL DIACYLGLYCERIDE O-ACYLTRANSFERASE 2 INHIBITORS” (Merck Sharp & Dohme LLC, priority 2022, published 2026).

Target: T1, human DGAT2 (hDGAT2) (Homo sapiens, UniProt Q96PD7)
T1 construct: made in house; host or cells: Sf-9 insect cells (baculovirus), membrane fraction
T1 sequence (Q96PD7 1-388): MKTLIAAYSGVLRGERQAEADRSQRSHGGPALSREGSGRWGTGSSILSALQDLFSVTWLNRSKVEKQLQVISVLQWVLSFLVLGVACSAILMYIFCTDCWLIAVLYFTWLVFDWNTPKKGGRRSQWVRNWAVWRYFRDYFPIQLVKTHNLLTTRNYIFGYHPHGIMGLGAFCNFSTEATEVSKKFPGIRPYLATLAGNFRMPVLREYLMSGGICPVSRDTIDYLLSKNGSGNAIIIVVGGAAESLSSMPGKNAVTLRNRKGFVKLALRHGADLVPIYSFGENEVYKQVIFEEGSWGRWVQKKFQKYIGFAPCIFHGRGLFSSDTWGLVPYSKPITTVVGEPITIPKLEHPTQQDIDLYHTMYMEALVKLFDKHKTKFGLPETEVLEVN
Experiment: DGAT2 Enzymatic Activity Assay
Assay type: biochemical
Settings: membrane prep of Sf-9 cells expressing hDGAT2; 13C18-triolein product by LC/MS/MS; 25 μM diolein, 5 μM 13C oleoyl-CoA, rt
Description: Sf-9 insect cells were maintained in Grace's insect cell culture medium with 10% heated-inactivated fetal bovine serum, 1% Pluronic F-68 and 0.14 μg/ml Kanamycine sulfate at 27° C. in a shaker incubator. After infection with untagged baculovirus expressing human DGAT2 (hDGAT2) at multiplicity of infection (MOI) 3 for 48 hours, cells were harvested. Cell pellets were suspended in buffer containing 10 mM Tris-HCl pH 7.5, 1 mM EDTA, 250 mM sucrose and Complete Protease Inhibitor Cocktail (Sigma Aldrich), and sonicated on ice. Cell debris were removed by centrifugation at 2000×g for 15 minutes. Membrane fractions were isolated by ultracentrifugation (100,000×g), resuspended in the same buffer, and frozen (−80° C.) for later use. The protein concentration was determined with the Pierce™ BCA Protein Assay Kit (Thermo Fisher Scientific).
LC/MS/MS analyses were performed using Thermal Fisher's LX4-TSQ Vantage system. This system consists of an Agilent binary high-performance liquid chromatography (HPLC) pump and a TSQ Vantage triple quadrupole MS/MS instrument. For each sample, 2 μL samples from the top organic layer of in-plate liquid-liquid extraction were injected onto a Thermo Betabasic C4 column (2.1 mm×20 mm, 5 μm particle size). The samples were then eluted using the following conditions; mobile phase: Isopropanol:acetonitrile/10 mM ammonium formate=50/35/15 (v/v/v), flow rate: 0.8 mL/min, temperature: 25° C. Data was acquired in positive mode using a heated electrospray ionization (HESI) interface. The operational parameters for the TSQ Vantage MS/MS instrument were a spray voltage of 3000 V, capillary temperature of 280° C., vaporizer temperature 400° C., sheath gas 45 arbitrary unit. Aux gas 10 arbitrary units. […] The peak area was integrated by Xcalibur Quan software. The ratio between the ^13C18 triolein generated in the reaction and spiked in internal standard ^13C21-triolein was used to generate percentage inhibition and IC50 values. Compound percentage inhibition was calculated by the following formula: Inhibition %=1−[(compound response−low control)/(high control−low control)]×100%.
DGAT2 activity was determined by measuring the amount of enzymatic product ^13C18-triolein (^13C-1,2,3-Tri(cis-9-octadecenoyl)glycerol) using the membrane prep mentioned above. The assay was carried out in ABgene 384-well assay plates in a final volume of 25 μL at rt.

Row | SMILES | IC50
1 | CC(C)c1c(Oc2ncc(Cl)cc2OCC(F)(F)F)ccc2nc(C(=O)NC3(C)CS(=O)(=O)C3)cn12 [Example 55, 6-[[5-chloro-3-(2,2,2-trifluoroethoxy)-2-pyridyl]oxy]-5-isopropyl-N-(3-methyl-1,1-dioxo-thietan-3-yl)imidazo[1,2-a]pyridine-2-carboxamide] | 89 nM
2 | CCOc1cccnc1Oc1ccc2nc(C(=O)Nc3ccc(C)nn3)cn2c1 [Example 57, 6-[(3-ethoxy-2-pyridyl)oxy]-N-(6-methylpyridazin-3-yl)imidazo[1,2-a]pyridine-2-carboxamide] | 1110 nM
3 | CCc1cc2nc(C(=O)NC3(C)CCS(=O)(=O)CC3)cn2cc1Oc1ncc(Cl)cc1OCC(F)(F)F [Example 59, 6-((5-Chloro-3-(2,2,2-trifluoroethoxy)pyridin-2-yl)oxy)-7-ethyl-N-(4-methyl-1,1-dioxidotetrahydro-2H-thiopyran-4-yl)imidazo[1,2-a]pyridine-2-carboxamide] | 9 nM
4 | CC1(NC(=O)c2cn3cc(Oc4ncccc4O)ccc3n2)CCS(=O)(=O)CC1 [Example 60, 6-[(3-hydroxy-2-pyridyl)oxy]-N-(4-methyl-1,1-dioxo-thian-4-yl)imidazo[1,2-a]pyridine-2-carboxamide] | > 9990 nM
5 | Cc1c(C(=O)NC2(CC(F)(F)F)CCS(=O)(=O)CC2)nc2ccc(Oc3ncc(F)cc3OCC(F)F)cn12 [Example 62, 6-[[3-(2,2-difluoroethoxy)-5-fluoro-2-pyridyl]oxy]-N-[1,1-dioxo-4-(2,2,2-trifluoroethyl)thian-4-yl]-3-methyl-imidazo[1,2-a]pyridine-2-carboxamide] | 1.5 nM
6 | CCC1(NC(=O)c2nc3ccc(Oc4ncc(F)cc4OCC(F)F)cn3c2C)CCS(=O)(=O)CC1 [Example 66, 6-[[3-(2,2-difluoroethoxy)-5-fluoro-2-pyridyl]oxy]-N-(4-ethyl-1,1-dioxo-thian-4-yl)-3-methyl-imidazo[1,2-a]pyridine-2-carboxamide] | 0.8 nM
7 | Cc1c(C(=O)NC2(C)CCS(=O)(=O)CC2)nc2ccc(Oc3ncc(F)cc3OCC3(F)CC3)cn12 [Example 68] | 0.8 nM

Continued, values first:

Row | IC50 | SMILES
8 | > 9990 nM | CC1(NC(=O)c2cn3cc(Oc4ncccc4OCC(F)(F)F)cc(C(F)(F)F)c3n2)CCS(=O)(=O)CC1 [Example 56, N-(4-methyl-1,1-dioxo-thian-4-yl)-6-[[3-(2,2,2-trifluoroethoxy)-2-pyridyl]oxy]-8-(trifluoromethyl)imidazo[1,2-a]pyridine-2-carboxamide]
9 | 262 nM | CCC(F)(F)c1cccnc1Oc1ccc2nc(C(=O)NC3(C)CCS(=O)(=O)CC3)cn2c1 [Example 58, 6-[[3-(1,1-difluoropropyl)-2-pyridyl]oxy]-N-(4-methyl-1,1-dioxo-thian-4-yl)imidazo[1,2-a]pyridine-2-carboxamide]
10 | 3 nM | Cc1c(C(=O)NC2(C)CCS(=O)(=O)CC2)nc2ccc(Oc3ncc(Cl)cc3OCC(F)(F)F)cn12 [Example 61, 6-[[5-chloro-3-(2,2,2-trifluoroethoxy)-2-pyridyl]oxy]-3-methyl-N-(4-methyl-1,1-dioxo-thian-4-yl)imidazo[1,2-a]pyridine-2-carboxamide]
11 | 1.7 nM | Cc1c(C(=O)NC2(C)CCS(=O)(=O)C(C)(C)C2)nc2ccc(Oc3ncc(F)cc3OCC(F)F)cn12 (stereo not shown) [Example 64]
12 | 434 nM | Cc1c(C(=O)NC2(C(C)C)CCS(=O)(=O)CC2)nc2ccc(Oc3ncc(F)cc3OCC(F)F)cn12 [Example 65, 6-[[3-(2,2-difluoroethoxy)-5-fluoro-2-pyridyl]oxy]-N-(4-isopropyl-1,1-dioxo-thian-4-yl)-3-methyl-imidazo[1,2-a]pyridine-2-carboxamide]
13 | 2 nM | CCOc1cc(Cl)cnc1Oc1ccc2nc(C(=O)NC3(C)CS(=O)(=O)C3)c(C)n2c1 [Example 69, 6-[(5-chloro-3-ethoxy-2-pyridyl)oxy]-3-methyl-N-(3-methyl-1,1-dioxo-thietan-3-yl)imidazo[1,2-a]pyridine-2-carboxamide]
